Reference: patent US8148373B2, “Compounds” (AstraZeneca AB, priority 2008, dated 2012)

Experiments:
[1] = target: T1, human muscarinic acetylcholine M3 receptor (M3-ACh) (Homo sapiens, UniProt P20309); assay: Muscarinic 3 Receptor Binding Assay, % inhibition specific binding at 1 μM; details: 1 μM compound, % inhibition specific [3H]-NMS binding
T1 construct: expressed in transfected cells; host or cells: CHO-K1 (Chinese Hamster Ovary) cell membranes
Procedure: The following experimental procedure was used to determine the M3% inhibition at 1 μM of the compounds of Examples 116-263.
Muscarinic 3 Receptor Binding Assay
The activity (% inhibition specific binding) of compounds -on the M3 receptor is determined by competition binding of [^3H]N-methyl scopolamine (NMS) to CHO-K1 (Chinese Hamster Ovary) cell membranes expressing the human muscarinic acetylcholine M3 receptor (M3-ACh) in a scintillation proximity assay (SPA) format.
SPA beads are precoated with membranes and then incubated at 2 mg of beads per well with 1 μM compound of the invention, [^3H]NMS at 0.1 nM, quarter Kd (experimentally determined dissociation constant) and assay buffer (20 mM HEPES pH 7.4 containing 5 mM MgCl2). The assay is conducted in a final volume of 200 μL, in the presence of 1% (v/v) dimethyl sulphoxide (DMSO). Total binding of [^3H]NMS is determined in the absence of competing compound and non-specific binding of [^3H]NMS is determined in the presence of 1 μM atropine. The plates are incubated for 16 hours at room temperature and then read on Wallac Microbeta™ using a normalised ^3H protocol. The compound activity at 1 defined as % inhibition specific [^3H]-NMS binding, is determined.

[2] = target: T2, Adrenergic β2 (H292 cells) (Homo sapiens, UniProt P07550); assay: Adrenergic β2 Mediated cAMP Production, single concentration 1 μM; format: cell-based; details: percentage of the maximum response generated by 1E-07M formoterol; for activation at 1 µM: NCI-H292, 1 μM compound, read-out: β2 (% effect at 1 μM)
T2 construct: endogenous in cells; host or cells: H292 cells
T2 sequence (P07550 whole entry): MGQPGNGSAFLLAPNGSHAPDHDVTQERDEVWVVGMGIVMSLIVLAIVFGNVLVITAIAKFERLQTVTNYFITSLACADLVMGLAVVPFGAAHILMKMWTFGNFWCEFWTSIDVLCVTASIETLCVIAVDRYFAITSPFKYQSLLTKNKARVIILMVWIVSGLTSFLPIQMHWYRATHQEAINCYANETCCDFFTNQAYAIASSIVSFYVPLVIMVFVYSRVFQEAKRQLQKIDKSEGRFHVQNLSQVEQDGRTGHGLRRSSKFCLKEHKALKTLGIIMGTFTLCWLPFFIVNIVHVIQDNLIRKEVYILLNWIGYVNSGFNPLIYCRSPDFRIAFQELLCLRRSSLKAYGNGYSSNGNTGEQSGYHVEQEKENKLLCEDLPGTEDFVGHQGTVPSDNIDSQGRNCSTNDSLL
Procedure: The following experimental procedure was used to measure the beta-2% effect at 1 μM for the compounds of Examples 116-263. Adrenergic β2 Mediated cAMP Production Cell Preparation
H292 cells are grown in 225 cm2 flasks incubator at 37° C., 5% CO2 in RPMI medium containing 10% (v/v) FBS (foetal bovine serum) and 2 mM L-glutamine.
Compounds were prepared by an initial first dilution into DMSO to give 1 mM stock concentration. This was followed by a 1 in 10 dilution of the stock concentration (10 μl stock compound+90 μl DMSO) to give 0.1 mM compound.
A compound addition plate was prepared by making a further 1 in 25 dilution in assay buffer (HBSS solution containing 10 mM HEPES pH7.4 and 5 mM glucose) containing 4% dimethylsulfoxide. The final compound concentration in assay is 1 μM.
Adherent H292 cells are removed from tissue culture flasks by treatment with Accutase™ cell detachment solution for 15 minutes. Flasks are incubated for 15 minutes in a humidified incubator at 37° C., 5% CO2. Detached cells are re-suspended in RPMI media (containing 10% (v/v) FBS and 2 mM L-glutamine) at 0.1×10^6 cells per mL. 10000 cells in 100 μL are added to each well of a tissue-culture-treated 96-well plate and the cells incubated overnight in a humidified incubator at 37° C., 5% CO2. The culture media is removed and cells are washed twice with 100 μL assay buffer and replaced with 50 μL assay buffer (HBSS solution containing 10 mM HEPES pH7.4 and 5 mM glucose). Cells are rested at room temperature for 20 minutes after which time 25 μL of rolipram (1.2 mM made up in assay buffer) is added. Cells are incubated with rolipram for 10 minutes after which time 25 μl test compounds are added and the cells are incubated for 60 minutes at room temperature. The final rolipram concentration in the assay is 300 μM and final vehicle concentration is 1% (v/v) dimethylsulphoxide. The reaction is stopped by removing supernatants, washing once with 100 μL assay buffer and replacing with 50 μL lysis buffer. The cell monolayer is frozen at −80° C. for 30 minutes (or overnight).
AlphaScreen™ cAMP Detection
The concentration of cAMP (cyclic adenosine monophosphate) in the cell lysate is determined using AlphaScreen™ methodology. The frozen cell plate is thawed for 20 minutes on a plate shaker then 10 μL of the cell lysate is transferred to a 96-well white plate. 40 μL of mixed AlphaScreen™ detection beads (containing equal volumes of donor beads (pre-incubated with biotinylated cAMP in the dark for 30 minutes) and acceptor beads is added to each well and the plate incubated at room temperature for 3 hours in the dark. The AlphaScreen™ signal is measured using an EnVision spectrophotometer (Perkin-Elmer Inc.) with the recommended manufacturer's settings. Concentration of cAMP produced per well were calculated with reference to the cAMP standard curve determined in the same experiment and expressed as a percentage of the maximum response generated by 1E-07M formoterol.

T1 sequence (P20309 whole entry): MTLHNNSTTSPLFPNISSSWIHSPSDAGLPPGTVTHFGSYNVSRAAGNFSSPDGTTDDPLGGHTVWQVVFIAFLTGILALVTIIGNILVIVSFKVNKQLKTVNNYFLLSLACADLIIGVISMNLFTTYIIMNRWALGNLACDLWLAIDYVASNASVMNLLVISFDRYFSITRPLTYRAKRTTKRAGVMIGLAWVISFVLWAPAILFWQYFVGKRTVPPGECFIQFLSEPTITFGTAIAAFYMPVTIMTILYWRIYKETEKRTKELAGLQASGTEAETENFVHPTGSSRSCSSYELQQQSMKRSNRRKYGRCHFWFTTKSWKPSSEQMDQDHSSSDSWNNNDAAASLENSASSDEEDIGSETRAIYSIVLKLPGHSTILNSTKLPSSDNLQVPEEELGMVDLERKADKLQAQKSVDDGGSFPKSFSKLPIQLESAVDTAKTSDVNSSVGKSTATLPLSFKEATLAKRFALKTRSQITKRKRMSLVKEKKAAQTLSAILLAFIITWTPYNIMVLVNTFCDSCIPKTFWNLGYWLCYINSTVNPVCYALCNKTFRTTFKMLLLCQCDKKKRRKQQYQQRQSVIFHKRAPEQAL

SMILES | inhibition at 1 µM [1] | activation at 1 µM [2] | M3 (% inhibition at 1 μM) ([1]; 1 µM) | β2 (% effect at 1 μM) ([2]; 1 μM compound)
O=C(c1ccc(-c2cc[nH]n2)cc1)N1CCOC2(CCN(Cc3cc(F)cc(CCNC[C@H](O)c4ccc(O)c5[nH]c(=O)sc45)c3)CC2)C1 [Example 148, (R)-7-(2-(3-((4-(4-(1H-pyrazol-3-yl)benzoyl)-1-oxa-4,9-diazaspiro[5.5]undecan-9-yl)methyl)-5-fluorophenethylamino)-1-hydroxyethyl)-4-hydroxybenzo[d]thiazol-2(3H)-one] | 4% | 104% | – | –
CC(C)(C)c1nc(C(=O)N2CCOC3(CCN(CCCCCCCCCNC[C@H](O)c4ccc(O)c5[nH]c(=O)sc45)CC3)C2)cs1 [Example 216, (R)-7-(2-(9-(4-(2-tert-butylthiazole-4-carbonyl)-1-oxa-4,9-diazaspiro[5.5]undecan-9-yl)nonylamino)-1-hydroxyethyl)-4-hydroxybenzo[d]thiazol-2(3H)-one] | 90% | 88% | – | –
O=C(CCc1c[nH]c2ccccc12)N1CCOC2(CCN(Cc3cc(F)cc(CCNC[C@H](O)c4ccc(O)c5[nH]c(=O)sc45)c3)CC2)C1 [Example 128, (R)-7-(2-(3-((4-(3-(1H-indol-3-yl)propanoyl)-1-oxa-4,9-diazaspiro[5.5]undecan-9-yl)methyl)-5-fluorophenethylamino)-1-hydroxyethyl)-4-hydroxybenzo[d]thiazol-2(3H)-one] | 14% | 112% | – | –
Cc1ccccc1C(=O)N1CCOC2(CCN(Cc3cc(F)cc(CCNC[C@H](O)c4ccc(O)c5[nH]c(=O)sc45)c3)CC2)C1 [Example 121, (R)-7-(2-(3-fluoro-5-((4-(2-methylbenzoyl)-1-oxa-4,9-diazaspiro[5.5]undecan-9-yl)methyl)phenethylamino)-1-hydroxyethyl)-4-hydroxybenzo[d]thiazol-2(3H)-one] | 28% | 85% | – | –
COc1ccc(OC)c(C(=O)N2CCOC3(CCN(Cc4cc(F)cc(CCNC[C@H](O)c5ccc(O)c6[nH]c(=O)sc56)c4)CC3)C2)c1 [Example 136, (R)-7-(2-(3-((4-(2,5-dimethoxybenzoyl)-1-oxa-4,9-diazaspiro[5.5]undecan-9-yl)methyl)-5-fluorophenethylamino)-1-hydroxyethyl)-4-hydroxybenzo[d]thiazol-2(3H)-one] | 26% | 111% | – | –
O=C(c1ccc(-c2ccccc2)cc1)N1CCOC2(CCN(Cc3cc(F)cc(CCNC[C@H](O)c4ccc(O)c5[nH]c(=O)sc45)c3)CC2)C1 [Example 145, (R)-7-(2-(3-((4-(biphenylcarbonyl)-1-oxa-4,9-diazaspiro[5.5]undecan-9-yl)methyl)-5-fluorophenethylamino)-1-hydroxyethyl)-4-hydroxybenzo[d]thiazol-2(3H)-one] | – | – | 7% | 53%
O=C(c1cccc2[nH]ccc12)N1CCOC2(CCN(Cc3cc(F)cc(CCNC[C@H](O)c4ccc(O)c5[nH]c(=O)sc45)c3)CC2)C1 [Example 165, (R)-7-(2-(3-((4-(1H-indole-4-carbonyl)-1-oxa-4,9-diazaspiro[5.5]undecan-9-yl)methyl)-5-fluorophenethylamino)-1-hydroxyethyl)-4-hydroxybenzo[d]thiazol-2(3H)-one] | 11% | 89% | – | –
CC(C)c1cc(C(=O)N2CCOC3(CCN(Cc4cc(F)cc(CCNC[C@H](O)c5ccc(O)c6[nH]c(=O)sc56)c4)CC3)C2)no1 [Example 179, (R)-7-(2-(3-fluoro-5-((4-(5-isopropylisoxazole-3-carbonyl)-1-oxa-4,9-diazaspiro[5.5]undecan-9-yl)methyl)phenethylamino)-1-hydroxyethyl)-4-hydroxybenzo[d]thiazol-2(3H)-one] | 66% | 95% | – | –

Now from value to compound, other results behind:

inhibition at 1 µM [1] | activation at 1 µM [2] | SMILES | M3 (% inhibition at 1 μM) ([1]; 1 µM) | β2 (% effect at 1 μM) ([2]; 1 μM compound)
51% | 68% | Cc1nc(CC(=O)N2CCOC3(CCN(CCOc4ccc(CNC[C@H](O)c5ccc(O)c6[nH]c(=O)sc56)cc4)CC3)C2)cs1 [Example 251, (R)-4-hydroxy-7-(1-hydroxy-2-(4-(2-(4-(2-(2-methylthiazol-4-yl)acetyl)-1-oxa-4,9-diazaspiro[5.5]undecan-9-yl)ethoxy)benzylamino)ethyl) benzo[d]thiazol-2(3H)-one] | – | –
22% | 67% | O=C(CCc1ccccc1)N1CCOC2(CCN(CCOc3ccc(CNC[C@H](O)c4ccc(O)c5[nH]c(=O)sc45)cc3)CC2)C1 [Example 228, (R)-4-hydroxy-7-(1-hydroxy-2-(4-(2-(4-(3-phenylpropanoyl)-1-oxa-4,9-diazaspiro[5.5]undecan-9-yl)ethoxy)benzylamino)ethyl) benzo[d]thiazol-2(3H)-one] | – | –
66% | 102% | Cc1sccc1C(=O)N1CCOC2(CCN(Cc3cc(F)cc(CCNC[C@H](O)c4ccc(O)c5[nH]c(=O)sc45)c3)CC2)C1 [Example 147, (R)-7-(2-(3-fluoro-5-((4-(2-methylthiophene-3-carbonyl)-1-oxa 4,9-diazaspiro[5.5]undecan-9-yl)methyl)phenethylamino)-1-hydroxyethyl)-4-hydroxybenzo[d]thiazol-2(3H)-one] | – | –
41% | 96% | O=C(c1[nH]nc2c1CCCC2)N1CCOC2(CCN(Cc3cc(F)cc(CCNC[C@H](O)c4ccc(O)c5[nH]c(=O)sc45)c3)CC2)C1 [Example 146, (R)-7-(2-(3-fluoro-5-((4-(4,5,6,7-tetrahydro-2H-indazole-3-carbonyl)-1-oxa-4,9-diazaspiro[5.5]undecan-9-yl)methyl)phenethylamino)-1-hydroxyethyl)-4-hydroxybenzo[d]thiazol-2(3H)-one] | – | –
35% | 73% | O=C(c1ccsc1Cl)N1CCOC2(CCN(CCOc3ccc(CNC[C@H](O)c4ccc(O)c5[nH]c(=O)sc45)cc3)CC2)C1 [Example 253, (R)-7-(2-(4-(2-(4-(2-chlorothiophene-3-carbonyl)-1-oxa-4,9-diazaspiro[5.5]undecan-9-yl)ethoxy)benzylamino)-1-hydroxyethyl)-4-hydroxy-benzo[d]thiazol-2(3H)-one] | – | –
52% | 97% | Cc1ccsc1C(=O)N1CCOC2(CCN(Cc3cc(F)cc(CCNC[C@H](O)c4ccc(O)c5[nH]c(=O)sc45)c3)CC2)C1 [Example 125, (R)-7-(2-(3-fluoro-5-((4-(3-methylthiophene-2-carbonyl)-1-oxa-4,9-diazaspiro[5.5]undecan-9-yl)methyl)phenethylamino)-1-hydroxyethyl)-4-hydroxybenzo[d]thiazol-2(3H)-one] | – | –
90% | 70% | O=C(c1csc(C2CCC2)n1)N1CCOC2(CCN(CCOc3ccc(CNC[C@H](O)c4ccc(O)c5[nH]c(=O)sc45)cc3)CC2)C1 [Example 261, (R)-7-(2-(4-(2-(4-(2-cyclobutylthiazole-4-carbonyl)-1-oxa-4,9-diazaspiro[5.5]undecan-9-yl)ethoxy)benzylamino)-1-hydroxyethyl)-4-hydroxy-benzo[d]thiazol-2(3H)-one] | – | –
